The source made the active and inactive calls. The calls are words filed in the database; no cut-off is given here.
What was measured:
[1] = system: Protein cereblon/GTPase KRas (Homo sapiens), P01116+Q96SW2 [G12D]; assay: PROTAC activity at CRBN/KRAS G12D mutant in human ASPC1 cells assessed as induction of KRAS G12D mutant degradation at 5 nM measured after 24 hrs by immunoblot analysis relative to control; type: cell-based
[2] = system: Protein cereblon/GTPase KRas (Homo sapiens), P01116+Q96SW2 [G12D]; assay: PROTAC activity at CRBN/KRAS G12D mutant in human ASPC1 cells assessed as induction of KRAS G12D mutant degradation at 50 nM measured after 24 hrs by immunoblot analysis relative to control; type: cell-based
[3] = system: Protein cereblon/GTPase KRas (Homo sapiens), P01116+Q96SW2 [G12D]; assay: PROTAC activity at CRBN/KRAS G12D mutant in human ASPC1 cells assessed as induction of KRAS G12D mutant degradation at 15 nM measured after 24 hrs by immunoblot analysis relative to control; type: cell-based
[4] = system: Protein cereblon/GTPase KRas (Homo sapiens), P01116+Q96SW2 [G12D]; assay: PROTAC activity at CRBN/KRAS G12D mutant in human ASPC1 cells assessed as induction of KRAS G12D mutant degradation at 5 uM measured after 24 hrs by immunoblot analysis relative to control; type: cell-based
[5] = system: Protein cereblon/GTPase KRas (Homo sapiens), P01116+Q96SW2 [G12D]; assay: PROTAC activity at CRBN/KRAS G12D mutant in human ASPC1 cells assessed as induction of KRAS G12D mutant degradation at 1 uM measured after 24 hrs by immunoblot analysis relative to control; type: cell-based
[6] = system: Protein cereblon/GTPase KRas (Homo sapiens), P01116+Q96SW2 [G12D]; assay: PROTAC activity at CRBN/KRAS G12D mutant in human ASPC1 cells assessed as induction of KRAS G12D mutant degradation at 100 nM measured after 24 hrs by immunoblot analysis relative to control; type: cell-based
GTPase KRas = GTPase KRas (Homo sapiens, UniProt P01116, G12D); assay: Binding affinity to 6 His-tagged GDP-loaded human KRAS G12D mutant assessed as GDP-GTP exchange preincubated for 30 mins followed by GTP addition for 30 mins by HTRF method
Sequence of GTPase KRas (P01116 whole entry G12D): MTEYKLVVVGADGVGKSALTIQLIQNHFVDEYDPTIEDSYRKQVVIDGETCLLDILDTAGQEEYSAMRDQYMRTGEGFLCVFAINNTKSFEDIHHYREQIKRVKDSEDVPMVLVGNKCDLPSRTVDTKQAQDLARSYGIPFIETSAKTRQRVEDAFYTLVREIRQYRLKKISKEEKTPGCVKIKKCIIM

GP2d = assay: PROTAC activity at CRBN/KRAS G12D mutant in human GP2d cells assessed as induction of KRAS G12D mutant degradation at 0.004 to 250 nM measured after 24 hrs by immunoblot analysis; type: cell-based; details: dose 0.004-250 nM
AGS = assay: Antiproliferative activity against human AGS cells harbouring KRAS G12D mutant assessed as inhibition of cell growth measured after 72 hrs by Cell titer glo method; type: functional, cell-based
[7] = Inhibition of Raf (unknown origin)/GTP loaded KRas G12D mutant interaction preincubated for 15 mins followed by anti-tag1-eu3 and Tag2-XL665 antibody addition and measured for 120 mins by HTRF method; design: species or system Homo sapiens
ASPC1 = assay: Antiproliferative activity against human ASPC1 cells harbouring KRAS G12D mutant assessed as inhibition of cell growth measured after 72 hrs by Cell titer glo method; type: functional, cell-based; details: ASPC1, 72 h
[8] = Inhibition of ERK phosphorylation in human PK-59 cells harbouring KRAS G12D mutant measured after 24 hrs; type: cell-based; details: PK-59, 24 h
[9] = Antitumor activity against human PK-59 cells xenografted in female Balb/c nude mouse model assessed as tumor growth inhibition at 1.81 mg/kg, iv QW measured after 28 days relative to control; type: functional; details: PK-59, 672 h, time 28 day, read-out: TGI
[10] = Antiproliferative activity against human PK-59 cells harbouring KRAS G12D mutant assessed as inhibition of cell growth measured after 72 hrs by Cell titer glo method; type: functional, cell-based; details: PK-59, 72 h
[11] = Inhibition of ERK phosphorylation in human ASPC1 cells harbouring KRAS G12D mutant measured after 24 hrs; type: cell-based; details: ASPC1, 24 h
[12] = Inhibition of ERK phosphorylation in human AGS cells harbouring KRAS G12D mutant measured after 24 hrs; type: cell-based
[13] = Inhibition of ERK phosphorylation in human GP2d cells harbouring KRAS G12D mutant measured after 24 hrs; type: cell-based
[14] = Toxicity in female Balb/c nude mouse xenografted with human PK-59 cells assessed as change in body weight at 1.8 mg/kg, iv QW measured after 28 days; type: organism-based; details: in vivo, 672 h, time 28 day
[15] = Antiproliferative activity against human GP2d cells harbouring KRAS G12D mutant assessed as inhibition of cell growth measured after 72 hrs by Cell titer glo method; type: functional, cell-based

Sequence of Protein cereblon/GTPase KRas (Homo sapiens), P01116+Q96SW2 [G12D] (P01116 whole entry G12D): as above
Sequence of Protein cereblon/GTPase KRas (Homo sapiens), P01116+Q96SW2 [G12D] (Q96SW2 whole entry partner): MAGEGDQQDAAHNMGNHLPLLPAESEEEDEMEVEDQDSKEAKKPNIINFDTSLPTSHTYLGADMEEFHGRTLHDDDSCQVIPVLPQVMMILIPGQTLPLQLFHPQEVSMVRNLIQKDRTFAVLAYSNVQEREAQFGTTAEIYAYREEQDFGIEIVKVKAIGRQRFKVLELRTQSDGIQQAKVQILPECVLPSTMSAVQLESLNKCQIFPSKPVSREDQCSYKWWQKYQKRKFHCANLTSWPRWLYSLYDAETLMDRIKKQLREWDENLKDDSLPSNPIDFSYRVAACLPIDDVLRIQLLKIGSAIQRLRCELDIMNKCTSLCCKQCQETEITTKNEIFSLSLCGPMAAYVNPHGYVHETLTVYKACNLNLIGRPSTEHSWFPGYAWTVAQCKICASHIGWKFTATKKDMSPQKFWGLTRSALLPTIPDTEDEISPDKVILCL

`C#Cc1c(F)ccc2cc(O)cc(-c3ncc4c(N5CC6CCC(C5)N6)nc(OCC5(CN6CCC7(CC6)CC(N6CCN(c8cccc9c8C(=O)N(C8CCC(=O)NC8=O)C9=O)CC6)C7)CC5)nc4c3F)c12` (stereo not given) showed an Activity [1] of 21% and an Activity [2] of 34%.

`C#Cc1c(F)ccc2cc(O)cc(-c3ncc4c(N5CC6CCC(C5)N6)nc(OCC5(CN6CCC7(CC6)CCN(c6ccc8c(c6)C(=O)N(C6CCC(=O)NC6=O)C8=O)CC7)CC5)nc4c3F)c12` (stereo not given) gave an Activity [2] of 57% and an Activity [3] of 32%.

`C#Cc1c(F)ccc2cc(O)cc(-c3ncc4c(N5CC6CCC(C5)N6)nc(OCCCN5CCN(CC(=O)N6CCN(c7ccc8c(c7)C(=O)N(C7CCC(=O)NC7=O)C8=O)CC6)CC5)nc4c3F)c12` (stereo not given) showed an Activity [4] of 9%, an Activity [5] of 4% and an Activity [2] of 1%. It also gave an Activity [6] of -1%.

Compound `C#Cc1c(F)ccc2cc(O)cc(-c3ncc4c(N5CC6CCC(C5)N6)nc(OCC5(CN6CCC7(CC6)CC(N6CCC(c8cccc(C9CCC(=O)NC9=O)c8)CC6)C7)CC5)nc4c3F)c12` (stereo not given) has an Activity [1] of -8% and an Activity [2] of -20%.

With `C#Cc1c(F)ccc2cc(O)cc(-c3ncc4c(N5CC6CCC(C5)N6)nc(OCC5(CN6CCC7(CC6)CC(N6CCC(c8cccc(N9CCC(=O)NC9=O)c8)CC6)C7)CC5)nc4c3F)c12` the Activity [1] was 0% and the Activity [2] was -10%.

For `C#Cc1c(F)ccc2cc(O)cc(-c3ncc4c(N5CC6CCC(C5)N6)nc(OCC5(CN6CCC7(CC6)CC(N6CCN(c8cc9c(cc8F)c(N8CCC(=O)N(C)C8=O)nn9C)CC6)C7)CC5)nc4c3F)c12`, the IC50 (GTPase KRas) was 4.02 nM and the Activity (GP2d) was “inactive”.

`C#Cc1c(F)ccc2cc(O)cc(-c3ncc4c(N5CC6CCC(C5)N6)nc(OCC5(CN6CCC7(CC6)CC(N6CCC(c8cccc9c8C(=O)N(C8CCC(=O)NC8=O)C9=O)CC6)C7)CC5)nc4c3F)c12` (stereo not given) gave an Activity [1] of -3% and an Activity [2] of -12%.

Compound `C#Cc1c(F)ccc2cc(O)cc(-c3ncc4c(N5CC6CCC(C5)N6)nc(OCC5(CN6CCC7(CC6)CC(N6CCC(c8ccc9c(c8)C(=O)N(C8CCC(=O)NC8=O)C9=O)CC6)C7)CC5)nc4c3F)c12` (stereo not given) has an Activity [1] of 37% and an Activity [2] of 59%.

With `C#Cc1c(F)ccc2cc(O)cc(-c3ncc4c(N5CC6CCC(C5)N6)nc(OCC5(CN6CCC7(CC6)CC(N6CCN(c8ccc9c(c8)C(=O)N(C8CCC(=O)NC8=O)C9=O)CC6)C7)CC5)nc4c3F)c12` (stereo not given) the Activity [1] was 48% and the Activity [2] was 64%.

`C#Cc1c(F)ccc2cc(O)cc(-c3ncc4c(N5CC6CCC(C5)N6)nc(OCC5(CN6CCC7(CC6)CC(N6CCN(c8ccc(NC9CCC(=O)NC9=O)cc8F)CC6)C7)CC5)nc4c3F)c12` (stereo not given) gave an Activity [1] of 54% and an Activity [2] of 64%.

In the case of `C#Cc1c(F)ccc2cc(O)cc(-c3ncc4c(N5CC6CCC(C5)N6)nc(OCC5(CN6CCC7(CC6)CC(N6CCN(c8ccc(NC9%10CC(C9)C(=O)NC%10=O)cc8F)CC6)C7)CC5)nc4c3F)c12`, the Activity [1] is reported as 68% and the Activity [2] is reported as 67%.

`C#Cc1c(F)ccc2cc(O)cc(-c3ncc4c(N5CC6CCC(C5)N6)nc(OCC5(CN6CCC7(CC6)CC(N6CCN(c8ccc(N9CCC(=O)NC9=O)cc8)CC6)C7)CC5)nc4c3F)c12` showed an Activity [1] of 6% and an Activity [2] of 2%.

With `C#Cc1c(F)ccc2cc(O)cc(-c3ncc4c(N5CC6CCC(C5)N6)nc(OCC5(CN6CCC7(CC6)CC(N6CCC(c8ccc(C9CCC(=O)NC9=O)cc8)CC6)C7)CC5)nc4c3F)c12` (stereo not given) the Activity [1] was 32% and the Activity [2] was 81%.

In the case of `C#Cc1c(F)ccc2cc(O)cc(-c3ncc4c(N5CC6CCC(C5)N6)nc(OCCCN5CCN(CC(=O)N6CCN(c7cccc8c7C(=O)N(C7CCC(=O)NC7=O)C8=O)CC6)CC5)nc4c3F)c12` (stereo not given), the Activity [4] is reported as 7%, the Activity [5] is reported as 7% and the Activity [2] is reported as 2%. For the same compound, the Activity [6] was 0%.

For `C#Cc1c(F)ccc2cc(O)cc(-c3ncc4c(N5CC6CCC(C5)N6)nc(OCCCN5CCN(C(=O)CN6CCN(c7cccc8c7C(=O)N(C7CCC(=O)NC7=O)C8=O)CC6)CC5)nc4c3F)c12` (stereo not given), the Activity [4] was 7%, the Activity [5] was 0% and the Activity [2] was 12%. It also gave an Activity [6] of 8%.

For `C#Cc1c(F)ccc2cc(O)cc(-c3ncc4c(N5CC6CCC(C5)N6)nc(OCC5(CN6CCN(c7ccc8c(c7)C(=O)N(C7CCC(=O)NC7=O)C8=O)CC6)CC5)nc4c3F)c12` (stereo not given), the Activity [6] was 58%.

Work on `C#Cc1c(F)ccc2cc(O)cc(-c3ncc4c(N5CC6CCC(C5)N6)nc(OCCCN5CCN(C(=O)CN6CCN(c7ccc8c(c7)C(=O)N(C7CCC(=O)NC7=O)C8=O)CC6)CC5)nc4c3F)c12` (stereo not given) yielded an Activity [4] of 23%, an Activity [5] of 21% and an Activity [2] of 9%. For the same compound, the Activity [6] was 10%.

For `C#Cc1c(F)ccc2cc(O)cc(-c3ncc4c(N5CC6CCC(C5)N6)nc(OC[C@@]56CCCN5C[C@H](F)C6)nc4c3F)c12` [MRTX-1133], the IC50 (AGS) was 2.43 nM, the IC50 [7] was 1.43 nM and the IC50 (ASPC1) was 56.8 nM. For the same compound, the IC50 [8] was 4.2 nM, the inhibition in vivo at 1.81 mg/kg [9] was 58.7% and the IC50 [10] was 2.9 nM. The IC50 [11] was 20.3 nM, the IC50 [12] was 24.7 nM and the IC50 [13] was 0.87 nM. The Activity [14] was “Non-toxic” and the IC50 [15] was 0.91 nM.

For `C#Cc1c(F)ccc2cc(O)cc(-c3ncc4c(N5CC6CCC(C5)N6)nc(OCC5(CN6CCN(C(=O)CN7CCN(c8ccc9c(c8)C(=O)N(C8CCC(=O)NC8=O)C9=O)CC7)CC6)CC5)nc4c3F)c12` (stereo not given), the Activity [6] was 40%.

`C#Cc1c(F)ccc2cc(O)cc(-c3ncc4c(N5CC6CCC(C5)N6)nc(OCC5(CN6CCC7(CC6)CC(N6CCC(c8ccc(NC9CCC(=O)NC9=O)cc8F)CC6)C7)CC5)nc4c3F)c12` (stereo not given) showed an Activity [1] of 84% and an Activity [2] of 79%.

Reference: ChEMBL document CHEMBL6177994 (J Med Chem, 2025)
